The subject of one data set is Monochoria vaginalis. Description: Herbicidal activity in transplanted paddy rice. Format: in vivo. The conditions noted are these: paddy water application, after 3 weeks; for pest or weed control at 70 g/ha: 70 g ai/ha. How it is done:
(§1) Weed seeds or nutlets of the desired test plant species were planted in puddled soil (mud) prepared by mixing a non-sterilized mineral soil (28 percent silt, 18 percent clay, and 54 percent sand, with a pH of about 7.3 to 7.8 and an organic matter content of about 1.0 percent) and water at a ratio of 100 kg of soil to 19 L of water. The prepared mud was dispensed in 250 mL aliquots into 480 mL non-perforated plastic pots with a surface area of 91.6 square centimeters leaving a headspace of 3 centimeters in each pot. […] Seedlings at the second or third leaf stage of growth were transplanted into 650 mL of mud contained in 960 mL non-perforated plastic pots with a surface area of 91.6 square centimeters 4 days prior to herbicide application. The paddy was created by filling the 3 centimeter headspace of the pots with water. When required to ensure good germination and healthy plants, a fungicide treatment and/or other chemical or physical treatment was applied. The plants were grown for 4-14 days in a greenhouse with an approximate 14 hour photoperiod which was maintained at about 29° C. during the day and 26° C. during the night. Nutrients were added as Osmocote (17:6:10, N:P:K+minor nutrients) at 2 g per pot. Water was added on a regular basis to maintain the paddy flood, and supplemental lighting was provided with overhead metal halide 1000-Watt lamps as necessary. The plants were employed for testing when they reached the second or third true leaf stage. A weighed amount, determined by the highest rate to be tested, of each test compound was placed in a 120 mL glass vial and was dissolved in 20 mL of acetone to obtain concentrated stock solutions. […] Application rates of ½×, ¼×, ⅛× and 1/16× of the high rate were obtained by injecting an appropriate amount of the stock solution into the aqueous layer of the paddy. Control plants were treated in the same manner with the solvent blank. The treated plants and control plants were placed in a greenhouse as described above and water was added as needed to maintain a paddy flood.

Another data set concerns Echinochloa crus-galli. The experiment in a line: Herbicidal activity in transplanted paddy rice. Format: in vivo. Conditions: paddy water application, after 3 weeks; for pest or weed control at 70 g/ha: 70 g ai/ha. The protocol: as §1
The next data set concerns Scirpus juncoides. Description: Herbicidal activity in transplanted paddy rice. Conditions: paddy water application, after 3 weeks; for pest or weed control at 70 g/ha: 70 g ai/ha. Format: in vivo. The protocol:
as §1

For data set [1], the system named is rice (Orysa sativa var. Japonica). The experiment in a line: Herbicidal activity in transplanted paddy rice. Conditions: transplant rice (crop), paddy water application, after 3 weeks; for pest or weed control at 70 g/ha: 70 g ai/ha. Format: in vivo. How it is done:
as §1

Another data set concerns Cyperus difformis. The experiment in a line: Herbicidal activity in transplanted paddy rice. Format: in vivo. Conditions: paddy water application, after 3 weeks; for pest or weed control at 70 g/ha: 70 g ai/ha. The protocol: as §1
For data set [2], the system named is redroot pigweed (Amaranthus retroflexus). Description: Preemergence herbicidal activity. Format: in vivo. Conditions: Amaranthus retroflexus, pre-emergence, 480 h; pre-emergent, 140 g ai/ha, after 20-22 days; read-out: % Control AMARE. The procedure, abridged:
(§2)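 Seeds sown in 70:30 loam (pH about 8.1, about 1.5% organic matter) and sand mix, then sprayed preemergence at 187 L/ha with a track sprayer; controls received solvent blank. Pots kept in greenhouse, about 15 h photoperiod, about 23-29° C. day and 22-28° C. night, top-irrigated.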

The test system of data set [3] is velvetleaf (Abutilon theophrasti). Description: Preemergence herbicidal activity. The conditions noted are these: Abutilon theophrasti, pre-emergence, 480 h; pre-emergent, 140 g ai/ha, after 20-22 days; read-out: % Control ABUTH. Format: in vivo. The procedure, abridged: as §2
For data set [4], the system named is lambsquarter (Chenopodium album). The experiment in a line: Preemergence herbicidal activity. Format: in vivo. The conditions noted are these: Chenopodium album, pre-emergence, 480 h; pre-emergent, 140 g ai/ha, after 20-22 days; read-out: % Control CHEAL. The procedure, abridged: as §2
In data set [5] the test system is redroot pigweed (Amaranthus retroflexus). Description: Postemergence herbicidal activity. Format: in vivo. The conditions noted are these: Amaranthus retroflexus, post-emergence, 336 h, post-emergent, 140 g ai/ha, after 14 days; read-out: % Control AMARE. The procedure, abridged: (§3)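 Plants grown 7-21 days in greenhouse (about 15 h photoperiod, 23-29° C day, 22-28° C night) to first or second true leaf stage. Compounds in acetone/water/isopropanol/DMSO carrier with crop oil concentrate and Triton X-155 sprayed overhead at 187 L/ha; controls received solvent blank. Plants sub-irrigated afterwards; dose responses analysed by probit analysis.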

In data set [6] the test system is velvetleaf (Abutilon theophrasti). The experiment in a line: Postemergence herbicidal activity. Format: in vivo. Conditions: Abutilon theophrasti, post-emergence, 336 h, post-emergent, 140 g ai/ha, after 14 days; read-out: % Control ABUTH. The procedure, abridged: as §3
The subject of data set [7] is lambsquarter (Chenopodium album). The experiment in a line: Postemergence herbicidal activity. Format: in vivo. Conditions: Chenopodium album, post-emergence, 336 h, post-emergent, 140 g ai/ha, after 14 days; read-out: % Control CHEAL. The procedure, abridged:
as §3

The next data set deals with Lamium purpureum. Description: Postemergence herbicidal activity in cereal crops. Format: in vivo. Conditions: post-emergent, 17.5 g ai/ha, after 20-22 days. The protocol: (§4) When required to ensure good germination and healthy plants, a fungicide treatment and/or other chemical or physical treatment was applied. The plants were grown for 7-36 days in a greenhouse with an approximate 14 hour photoperiod which was maintained at about 18° C. during the day and 17° C. during the night. Nutrients and water were added on a regular basis and supplemental lighting was provided with overhead metal halide 1000-Watt lamps as necessary. The plants were employed for testing when they reached the second or third true leaf stage. […] The concentrated stock solutions obtained were diluted with 16 mL of an aqueous mixture containing acetone, water, isopropyl alcohol, DMSO, Agri-dex crop oil concentrate, and Triton® X-77 surfactant in a 64.7:26.0:6.7:2.0:0.7:0.01 v/v ratio to obtain spray solutions containing the highest application rates. […] Compound requirements are based upon a 12 mL application volume at a rate of 187 L/ha. Formulated compounds were applied to the plant material with an overhead Mandel track sprayer equipped with a […] nozzles calibrated to deliver 187 L/ha over an application area of 0.503 square meters at a spray height of 18 inches (43 cm) above average plant canopy height. Control plants were sprayed in the same manner with the blank. The treated plants and control plants were placed in a greenhouse as described above and watered by sub-irrigation to prevent wash-off of the test compounds.

A further data set deals with Veronica persica. The experiment in a line: Postemergence herbicidal activity in cereal crops. Format: in vivo. The conditions noted are these: post-emergent, 17.5 g ai/ha, after 20-22 days. How it is done: as §4
The next data set concerns Papaver rhoeas. The experiment in a line: Postemergence herbicidal activity in cereal crops. Format: in vivo. Conditions: post-emergent, 17.5 g ai/ha, after 20-22 days. The protocol: as §4
The next data set deals with barley (Hordeum vulare). Description: Postemergence herbicidal activity in cereal crops. Format: in vivo. Conditions: crop, post-emergent, 17.5 g ai/ha, after 20-22 days. How it is done:
as §4

Another data set concerns Galium aparine. The experiment in a line: Postemergence herbicidal activity in cereal crops. Format: in vivo. The conditions noted are these: post-emergent, 17.5 g ai/ha, after 20-22 days. How it is done:
as §4

In data set [8] the test system is wheat (Triticum aestivum). Description: Postemergence herbicidal activity in cereal crops. Conditions: crop, post-emergent, 17.5 g ai/ha, after 20-22 days. Format: in vivo. How it is done: as §4
The mark [9] stands for this setting: Pontederia vaginalis, 504 h, read-out: % Control MOOVA.
Setting [10] is: Echinochloa crus-galli, 504 h, read-out: % Control ECHCG.
Where [11] appears, read: Schoenoplectiella juncoides, 504 h, read-out: % Control SCPJU.
Setting [12] is: Cyperus difformis, 504 h, read-out: % Control CYPDI.

Molecules are shown by their SMILES.

As for `CCOc1c(Cl)ccc(-c2cc(N)c(Cl)c(C(=O)OC)n2)c1F` [Compound 41, 4-amino-3-chloro-6-(4-chloro-2-fluoro-3-ethoxyphenyl)-pyridine-2-carboxylic acid methyl ester], the melting point lay within 154 to 156 °C. In the data set on Monochoria vaginalis (Pontederia vaginalis, 504 h, 17.5 g ai/ha, read-out: % Control MOOVA), the pest or weed control at 17.5 g/ha was 100%. The pest or weed control at 17.5 g/ha with Echinochloa crus-galli (Echinochloa crus-galli, 504 h, 17.5 g ai/ha, read-out: % Control ECHCG) was 50%. For the same compound, the pest or weed control at 17.5 g/ha in the data set with Scirpus juncoides (Schoenoplectiella juncoides, 504 h, 17.5 g ai/ha, read-out: % Control SCPJU) was found to be 90%. The pest or weed control at 17.5 g/ha in data set [1] (Oryza sativa, 504 h, 17.5 g ai/ha) stood at 10%. Also, the pest or weed control at 17.5 g/ha in the data set with Cyperus difformis (Cyperus difformis, 504 h, 17.5 g ai/ha, read-out: % Control CYPDI) turned out to be 100%. The pest or weed control at 140 g/ha in [2] is 50%. Further, in data set [3], the pest or weed control at 140 g/ha is 80%. Moreover, the pest or weed control at 140 g/ha in [4] was determined as 90%. The pest or weed control at 140 g/ha in data set [5] came to 85%. In addition, the pest or weed control at 140 g/ha in data set [6] was found to be 95%. For the same compound, the pest or weed control at 140 g/ha in data set [7] is 98%.
For `COC(=O)c1nc(-c2ccc3c(c2F)OCO3)cc(N)c1Cl` [Compound 46, 4-Amino-3-chloro-6-(2-fluoro-3,4 methylenedioxyphenyl)pyridine-2-carboxylic acid methyl ester], the melting point is 139 to 141 °C. Moreover, the pest or weed control at 35 g/ha in the data set with Monochoria vaginalis (Pontederia vaginalis, 504 h, 35 g ai/ha, read-out: % Control MOOVA) came out at 100%. Moreover, the pest or weed control at 35 g/ha in the data set with Echinochloa crus-galli (Echinochloa crus-galli, 504 h, 35 g ai/ha, read-out: % Control ECHCG) stood at 20%. The pest or weed control at 35 g/ha with Scirpus juncoides (Schoenoplectiella juncoides, 504 h, 35 g ai/ha, read-out: % Control SCPJU) was 100%. This compound gave a pest or weed control at 35 g/ha in data set [1] (Oryza sativa, 504 h, 35 g ai/ha) of 0%. Besides, the pest or weed control at 35 g/ha with Cyperus difformis (Cyperus difformis, 504 h, 35 g ai/ha, read-out: % Control CYPDI) was 100%. The pest or weed control at 140 g/ha in [5] worked out at 100%. In addition, the pest or weed control at 140 g/ha in data set [6] was determined as 100%. Further, the pest or weed control at 140 g/ha in [7] is 95%.
With `COC(=O)c1nc(-c2ccc(Br)c(OC)c2Cl)cc(N)c1Cl` [Compound 52, 4-Amino-6-(4-bromo-2-chloro-3-methoxyphenyl)-3-chloropyridine-2-carboxylic acid, methyl ester], the melting point lay in the range of 154 to 155 °C. In addition, in the data set on Monochoria vaginalis (setting [9]), the pest or weed control at 70 g/ha was found to be 99%. Also, the pest or weed control at 70 g/ha with Echinochloa crus-galli (setting [10]) amounted to 60%. Also, the pest or weed control at 70 g/ha in the data set on Scirpus juncoides (setting [11]) was determined as 95%. In [1] (Oryza sativa, 504 h), this compound registered a pest or weed control at 70 g/ha of 0%. Further, in the data set with Cyperus difformis (setting [12]), the pest or weed control at 70 g/ha turned out to be 100%. In data set [2], the pest or weed control at 140 g/ha was determined as 100%. Also, the pest or weed control at 140 g/ha in data set [3] is 100%. The pest or weed control at 140 g/ha in data set [4] was 90%. For the same compound, in data set [5], the pest or weed control at 140 g/ha amounted to 100%. Also, in data set [6], the pest or weed control at 140 g/ha turned out to be 100%. In data set [7], the pest or weed control at 140 g/ha is 95%.
Regarding `CC(F)c1c(Cl)ccc(-c2cc(N)cc(C(=O)O)n2)c1Cl` (centres unmarked) [Compound 125, 4-Amino-6-[2,4 dichloro-3-(1-fluoroethyl)phenyl]pyridine-2-carboxylic acid], the melting point was 169 to 170 °C (dec.). In the data set on Monochoria vaginalis (setting [9]), the pest or weed control at 70 g/ha worked out at 100%. Also, the pest or weed control at 70 g/ha with Echinochloa crus-galli (setting [10]) is 100%. The pest or weed control at 70 g/ha in the data set with Scirpus juncoides (setting [11]) was found to be 100%. Moreover, in data set [1] (Oryza sativa, 504 h), the pest or weed control at 70 g/ha was 5%. Besides, the pest or weed control at 70 g/ha with Cyperus difformis (setting [12]) was determined as 100%. The pest or weed control at 140 g/ha in data set [2] came to 100%. Besides, in [3], the pest or weed control at 140 g/ha stood at 100%. Besides, the pest or weed control at 140 g/ha in [4] is 100%.
Take `CCN(CC)CC.COc1c(Cl)ccc(-c2cc(N)c(Cl)c(C(=O)O)n2)c1F` [Compound 135, 4-amino-3-chloro-6-(4-chloro-2-fluoro-3-methoxyphenyl)-pyridine-2-carboxylic acid, triethyl amine salt]: the “% Control LAMPU” value in the data set on Lamium purpureum was 100%. For the same compound, the “% Control VERPE” value in the data set with Veronica persica was 60%. Besides, the “% Control PAPRH” value with Papaver rhoeas is on record as 100%. The “% Control HORVS” value with barley (Hordeum vulare) was found to be 0%. In the data set with Galium aparine, the “% Control GALAP” value is recorded as 90%. In data set [8], the “% Control TRZAS” value came to 0%. In addition, the “% Control MOOVA” value in the data set with Monochoria vaginalis (17.5 g ai/ha) is given as 100%. The “% Control ECHCG” value with Echinochloa crus-galli (17.5 g ai/ha) was determined as 30%. For the same compound, the “% Control SCPJU” value in the data set on Scirpus juncoides (17.5 g ai/ha) was found to be 85%. Also, the “% Control ORYSA” value in [1] (17.5 g ai/ha) is given as 10%. Also, the “% Control CYPDI” value in the data set on Cyperus difformis (17.5 g ai/ha) came out at 100%.

What is called melting point is the temperature of the solid-liquid transition.

Source of the values: patent US20070179060A1, “6-(Poly-substituted aryl)-4-aminopicolinates and their use as herbicides” (priority 2006, published 2007).
